Key:
Assay type in all cases: cell-based
[1] = target: T1, EGFR L858R (Ba/F3 cells) (Homo sapiens, UniProt P00533, L858R); assay: Inhibitor activity on EGFR-dependent cell growth (CellTiter-Glo, 72 h), Ba/F3 EGFR L858R; conditions: read-out: BaF3 L858R IC50
T1 construct: expressed in transfected cells; host or cells: Ba/F3 (murine pro-B cells), retroviral transduction, puromycin selection, IL3-independent pool
In short: (§1)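 Compounds, serially diluted 3-fold over 10 points in DMSO and added at 120 nL per well, act on Ba/F3 EGFR-mutant cells for 72 h. Seeding is 800 (exon 19del, FQEA), 600 (L858R/C797S) or 400 (L858R) cells/well. CTG luminescence is fitted with a four-parameter logistic curve to give IC50.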

[2] = target: T2, EGFR exon 19del (Ba/F3 cells) (Homo sapiens, UniProt P00533); assay: Inhibitor activity on EGFR-dependent cell growth (CellTiter-Glo, 72 h), Ba/F3 EGFR exon 19del; conditions: Ba/F3 EGFR exon 19del cell growth, read-out: BaF3 Del19 IC50
In short: as §1

[3] = target: T3, EGFR L858R/C797S (Ba/F3 cells) (Homo sapiens, UniProt P00533, C797S/L858R); assay: Inhibitor activity on EGFR-dependent cell growth (CellTiter-Glo, 72 h), Ba/F3 EGFR L858R/C797S; conditions: read-out: BaF3 L858R/C797S IC50
T3 construct: expressed in transfected cells; host or cells: Ba/F3 (murine pro-B cells), retroviral transduction, puromycin selection, IL3-independent pool
Excerpt: Example A. Inhibitor Activity on EGFR-Dependent Cell Growth
Cell lines are generated by transducing Ba/F3 cells with retroviruses containing vectors with EGFR WT, EGFR L858R, EGFR exon 19del, EGFR L858R/C797S, EGFR exon 20 NPG Ins D770_N771, EGFR exon 20 ASV Ins V769_D770, EGFR exon 20 SVD Ins D770_N771, or EGFR exon 20 FQEA Ins A763_V764 genes and a puromycin selection marker. Transduced cells are selected with puromycin for 7 days and are then be transferred into culture media without Interleukin 3 (IL3). EGFR WT cells are maintained with supplemental EGF. Surviving cells are confirmed to express EGFR by Western blot and maintained as a pool. The IC50 date were included in Table 6 and Table 7.
(§2) 1.1 Cells are harvested from flask into cell culture medium and the cell number counted.
1.2 Cells are diluted with culture medium to the desired density and 40 μL of cell suspension is added into each well of 384-well cell culture plate and the seeding density is 800 (FQEA, exon 19del), 600 (WT, NPG, L858R/C797S), or 400 (ASV, SVD, L858R) cells/well.
(§3) 2 Compound Preparation and Treatment
(§4) 2.1 Test compounds are dissolved to 10 mM in a DMSO stock solution. 45 μL of stock solution is transferred to a 384 polypropylene plate (pp-plate). Perform 3-fold, 10-point dilution via transferring 15 μL compound into 30 μL DMSO using a TECAN (EVO200) liquid handler.
(§5) 2.2 Spin plates at room temperature at 1,000 RPM for 1 minute.
2.3 Transfer 120 nL of diluted compound from compound source plate into the cell plate.
2.4 After compound treatment for 72 hours, perform CTG detection for compound treatment plates as described in “Detection” section.
3.1 Plates are removed from incubators and equilibrated at room temperature for 15 minutes.
3.2 Thaw the CellTiter Glo reagents and allow to equilibrate to room temperature before the experiment.
3.3 Add 40 μL of CellTiter-Glo reagent into each well (at 1:1 to culture medium). Then place the plates at room temperature for 30 min followed by reading on EnVision.
4.1 Inhibition activity is calculated following the formula below:
% Inhibition=100×(LumHC−LumSample)/(LumHC−LumLC) • where HC is obtained from cells treated with 0.1% DMSO only; and LC is obtained from culture medium only.
4.2 2. Calculate the IC50 by fitting the Curve using Xlfit (v5.3.1.3), equation 201.
Y=Bottom+(Top−Bottom)/(1+10^((Log IC50−X)*HillSlope))

[4] = target: T1, EGFR L858R (Ba/F3 cells); assay: Inhibitor activity on EGFR phosphorylation (pEGFR AlphaLISA, 2 h), Ba/F3 EGFR L858R
Excerpt: (§6) Example B. Inhibitor Activity on EGFR phosphorylation (pEGFR)
(§7) EGFR mutant Ba/F3 cells were generated by transduction with retrovirus containing vectors expressing EGFR L858R, EGFR exon 19del, EGFR L858R/C797S, EGFR exon 20 NPG Ins D770_N771, EGFR exon 20 ASV Ins V769_D770, or EGFR exon 20 SVD Ins D770_N771 genes along with a puromycin selection marker. Transduced cells are selected with puromycin for 7 days and are then be transferred into culture media without Interleukin 3 (IL3). Surviving cells are confirmed to express EGFR by Western blot and maintained as a pool. CUTO14 cells were obtained from Dr. Robert C. Doebele at the University of Colorado. The IC50 date are included in Table 6 and Table 7.
as §2
(§8) 1.2 Cells are diluted with culture medium to the desired density and 40 μL of cell suspension is added into each well of 384-well cell culture plate and the seeding density is 50K cells/well (Ba/F3) or 12.5K cells/well (CUTO14).
as §3, §4, §5
(§9) 2.3 Transfer 5 nL of diluted compound from compound source plate into the cell plate.
(§10) 2.4 After compound treatment for 2 hours, perform pEGFR detection by AlphaLISA for compound treatment plates as described in “Detection” section.
(§11) 3 Detection by pEGFR AlphaLISA (Perkin-Elmer)
(§12) 3.1 Plates are removed from incubators and equilibrated at room temperature for 10 minutes, and media was removed
(§13) 3.2 10 μL of lysis buffer is added and plates shaken at 600 rpm for 1 hr.
(§14) 3.3 Prepare acceptor mix just before use and dispense 5 μL of acceptor mix to all the wells. Shake 350 rpm for Ihr in the dark
(§15) 3.4 Prepare donor mix under low light conditions prior to use. Dispense 5 μL of donor mix to all the wells. Mix well on the shaker, seal and wrap in aluminum foil and incubate 1.5 hrs at room temperature in the dark
(§16) 3.5 Transfer 18.5 μL mixture to OptiPlate 384, and read using an Envision. The IC50 date were included in Table 6 and Table 7.

[5] = target: T2, EGFR exon 19del (Ba/F3 cells); assay: Inhibitor activity on EGFR phosphorylation (pEGFR AlphaLISA, 2 h), Ba/F3 EGFR exon 19del; conditions: read-out: Del19 IC50 (pEGFR)
Excerpt: as §6, §7, §2, §8, §3, §4, §5, §9, §10, §11, §12, §13, §14, §15, §16

[6] = target: T3, EGFR L858R/C797S (Ba/F3 cells); assay: Inhibitor activity on EGFR phosphorylation (pEGFR AlphaLISA, 2 h), Ba/F3 EGFR L858R/C797S
Excerpt: as §6, §7, §2, §8, §3, §4, §5, §9, §10, §11, §12, §13, §14, §15, §16

[7] = target: T4, EGFR WT (Ba/F3 cells) (Homo sapiens, UniProt P00533); assay: Inhibitor activity on EGFR-dependent cell growth (CellTiter-Glo, 72 h), Ba/F3 EGFR WT; conditions: read-out: BaF3 WT IC50
T4 construct: expressed in transfected cells; host or cells: Ba/F3 (murine pro-B cells), retroviral transduction, puromycin selection, maintained with EGF
In short: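 This growth assay used Ba/F3 cells that depend on wild-type EGFR and are kept in EGF without IL3. Compounds were made up as 10 mM DMSO stocks and diluted 3-fold over 10 points. 120 nL went onto 600 cells/well. After 72 hours, 40 μL CellTiter-Glo was added and luminescence read on EnVision after 30 min.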

[8] = target: T5, EGFR exon 20 ASV Ins V769_D770 (Ba/F3 cells) (Homo sapiens, UniProt P00533, INS769ASV); assay: Inhibitor activity on EGFR-dependent cell growth (CellTiter-Glo, 72 h), Ba/F3 EGFR exon 20 ASV Ins; conditions: read-out: BaF3 ASV IC50
T5 construct: expressed in transfected cells; host or cells: Ba/F3 (murine pro-B cells), retroviral transduction, puromycin selection, IL3-independent pool
In short: (§17)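 IC50s derive from a sigmoidal dose–response fit of CellTiter-Glo signal. The signal was normalised between […]-treated cells and cell-free medium. Ba/F3 mutant-EGFR cells, seeded at 400–800/well depending on the line, had 72 h of exposure to a 10-point, 3-fold compound series.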

[9] = target: T6, EGFR exon 20 SVD Ins D770_N771 (Ba/F3 cells) (Homo sapiens, UniProt P00533, INS770SVD); assay: Inhibitor activity on EGFR-dependent cell growth (CellTiter-Glo, 72 h), Ba/F3 EGFR exon 20 SVD Ins; conditions: read-out: BaF3 SVD IC50
T6 construct: expressed in transfected cells; host or cells: Ba/F3 (murine pro-B cells), retroviral transduction, puromycin selection, IL3-independent pool
In short: as §17

[10] = target: T7, EGFR exon 20 FQEA Ins A763_V764 (Ba/F3 cells) (Homo sapiens, UniProt P00533, INS763FQEA); assay: Inhibitor activity on EGFR-dependent cell growth (CellTiter-Glo, 72 h), Ba/F3 EGFR exon 20 FQEA Ins; conditions: read-out: BaF3 FQEA IC50
T7 construct: expressed in transfected cells; host or cells: Ba/F3 (murine pro-B cells), retroviral transduction, puromycin selection, IL3-independent pool
In short: as §1

T3 sequence (P00533 25-1210 C797S/L858R): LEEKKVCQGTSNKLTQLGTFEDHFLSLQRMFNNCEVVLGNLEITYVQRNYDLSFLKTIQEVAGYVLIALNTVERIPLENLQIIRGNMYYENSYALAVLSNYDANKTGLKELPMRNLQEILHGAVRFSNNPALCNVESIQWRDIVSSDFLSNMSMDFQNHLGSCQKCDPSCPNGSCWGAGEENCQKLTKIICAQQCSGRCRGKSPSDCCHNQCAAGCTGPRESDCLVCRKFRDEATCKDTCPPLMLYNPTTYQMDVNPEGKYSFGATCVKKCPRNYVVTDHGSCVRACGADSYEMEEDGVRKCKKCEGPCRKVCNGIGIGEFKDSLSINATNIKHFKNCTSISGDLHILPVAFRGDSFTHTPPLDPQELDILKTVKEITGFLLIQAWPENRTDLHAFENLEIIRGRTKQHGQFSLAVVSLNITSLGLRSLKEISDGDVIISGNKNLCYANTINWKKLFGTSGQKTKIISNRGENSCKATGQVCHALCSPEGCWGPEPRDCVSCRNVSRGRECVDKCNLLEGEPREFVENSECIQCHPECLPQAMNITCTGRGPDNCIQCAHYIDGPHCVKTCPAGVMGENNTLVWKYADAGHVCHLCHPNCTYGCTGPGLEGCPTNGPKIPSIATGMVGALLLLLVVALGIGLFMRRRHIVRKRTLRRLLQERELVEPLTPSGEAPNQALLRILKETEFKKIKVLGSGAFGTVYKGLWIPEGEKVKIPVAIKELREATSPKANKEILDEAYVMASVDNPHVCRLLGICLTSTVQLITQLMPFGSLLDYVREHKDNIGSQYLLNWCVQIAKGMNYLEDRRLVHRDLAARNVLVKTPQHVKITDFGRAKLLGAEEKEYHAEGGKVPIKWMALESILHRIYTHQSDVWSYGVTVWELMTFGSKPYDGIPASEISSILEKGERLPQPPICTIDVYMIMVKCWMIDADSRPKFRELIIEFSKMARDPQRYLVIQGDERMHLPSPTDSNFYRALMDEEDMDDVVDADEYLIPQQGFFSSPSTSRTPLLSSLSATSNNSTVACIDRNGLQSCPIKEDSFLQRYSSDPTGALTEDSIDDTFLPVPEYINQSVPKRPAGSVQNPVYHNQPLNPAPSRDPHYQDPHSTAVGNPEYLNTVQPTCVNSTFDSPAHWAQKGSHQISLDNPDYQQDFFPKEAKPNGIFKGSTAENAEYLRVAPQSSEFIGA
T2 sequence (P00533 with tags, fused parts or gaps DEL746-750): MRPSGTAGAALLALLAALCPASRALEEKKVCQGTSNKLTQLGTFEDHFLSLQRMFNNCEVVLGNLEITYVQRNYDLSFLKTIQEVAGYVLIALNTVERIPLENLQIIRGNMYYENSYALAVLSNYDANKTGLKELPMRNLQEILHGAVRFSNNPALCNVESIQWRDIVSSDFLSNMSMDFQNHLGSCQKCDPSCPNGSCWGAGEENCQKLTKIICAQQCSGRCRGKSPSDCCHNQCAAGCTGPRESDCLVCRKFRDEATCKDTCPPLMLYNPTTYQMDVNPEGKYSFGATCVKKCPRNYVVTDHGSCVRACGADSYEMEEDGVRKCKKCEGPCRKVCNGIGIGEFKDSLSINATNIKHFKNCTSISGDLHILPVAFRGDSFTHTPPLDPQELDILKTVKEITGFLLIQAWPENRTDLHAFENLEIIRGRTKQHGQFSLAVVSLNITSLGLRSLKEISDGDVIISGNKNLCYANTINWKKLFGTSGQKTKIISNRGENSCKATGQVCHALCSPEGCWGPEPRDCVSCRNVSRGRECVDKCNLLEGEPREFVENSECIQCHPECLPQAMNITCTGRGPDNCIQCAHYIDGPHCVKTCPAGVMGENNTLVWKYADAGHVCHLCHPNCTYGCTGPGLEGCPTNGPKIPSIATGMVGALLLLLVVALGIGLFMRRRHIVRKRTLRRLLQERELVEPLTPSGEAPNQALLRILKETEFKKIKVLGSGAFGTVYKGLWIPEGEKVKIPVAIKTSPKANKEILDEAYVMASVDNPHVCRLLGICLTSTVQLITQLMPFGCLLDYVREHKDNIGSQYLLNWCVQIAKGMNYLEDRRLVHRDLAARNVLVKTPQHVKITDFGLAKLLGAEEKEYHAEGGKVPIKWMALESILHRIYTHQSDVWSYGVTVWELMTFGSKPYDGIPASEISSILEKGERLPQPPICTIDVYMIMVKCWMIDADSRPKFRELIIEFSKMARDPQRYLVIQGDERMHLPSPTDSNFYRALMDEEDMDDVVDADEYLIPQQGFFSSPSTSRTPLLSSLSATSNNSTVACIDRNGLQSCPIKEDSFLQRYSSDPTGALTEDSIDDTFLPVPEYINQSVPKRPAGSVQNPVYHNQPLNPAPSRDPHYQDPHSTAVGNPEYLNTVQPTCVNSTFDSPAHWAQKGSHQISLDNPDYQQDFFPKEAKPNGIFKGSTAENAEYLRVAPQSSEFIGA
T7 sequence (P00533 with tags, fused parts or gaps INS763FQEA): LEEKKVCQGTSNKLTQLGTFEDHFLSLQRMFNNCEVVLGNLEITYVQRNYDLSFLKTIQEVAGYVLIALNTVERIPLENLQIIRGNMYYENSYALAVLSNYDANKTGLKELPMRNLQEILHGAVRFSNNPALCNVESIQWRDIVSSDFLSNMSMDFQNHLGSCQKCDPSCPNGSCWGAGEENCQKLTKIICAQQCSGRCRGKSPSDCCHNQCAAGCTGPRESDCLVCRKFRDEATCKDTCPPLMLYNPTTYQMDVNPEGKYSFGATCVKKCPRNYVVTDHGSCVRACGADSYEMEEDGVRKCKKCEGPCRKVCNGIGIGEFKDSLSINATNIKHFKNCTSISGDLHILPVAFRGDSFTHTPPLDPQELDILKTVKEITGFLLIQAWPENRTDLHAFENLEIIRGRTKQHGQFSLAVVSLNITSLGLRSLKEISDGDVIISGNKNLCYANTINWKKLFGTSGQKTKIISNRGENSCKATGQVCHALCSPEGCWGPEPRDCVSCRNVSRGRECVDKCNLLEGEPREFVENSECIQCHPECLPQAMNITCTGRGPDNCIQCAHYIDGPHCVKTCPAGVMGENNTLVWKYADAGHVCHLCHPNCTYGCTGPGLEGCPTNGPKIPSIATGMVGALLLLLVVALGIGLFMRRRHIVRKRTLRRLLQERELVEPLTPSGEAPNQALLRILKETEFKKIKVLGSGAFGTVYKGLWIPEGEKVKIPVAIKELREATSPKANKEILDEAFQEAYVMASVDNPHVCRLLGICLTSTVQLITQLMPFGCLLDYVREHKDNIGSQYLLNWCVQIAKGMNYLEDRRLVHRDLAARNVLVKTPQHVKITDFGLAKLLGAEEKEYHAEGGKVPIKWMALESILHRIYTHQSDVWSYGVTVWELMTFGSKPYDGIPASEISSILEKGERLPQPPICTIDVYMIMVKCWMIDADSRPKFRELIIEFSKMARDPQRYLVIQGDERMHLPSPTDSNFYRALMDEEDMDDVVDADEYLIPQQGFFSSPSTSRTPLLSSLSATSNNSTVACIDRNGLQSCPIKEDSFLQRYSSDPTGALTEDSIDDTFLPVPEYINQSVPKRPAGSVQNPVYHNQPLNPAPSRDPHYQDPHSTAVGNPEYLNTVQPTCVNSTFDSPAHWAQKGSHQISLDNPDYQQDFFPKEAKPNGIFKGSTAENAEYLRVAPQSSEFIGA
T5 sequence (P00533 with tags, fused parts or gaps INS769ASV): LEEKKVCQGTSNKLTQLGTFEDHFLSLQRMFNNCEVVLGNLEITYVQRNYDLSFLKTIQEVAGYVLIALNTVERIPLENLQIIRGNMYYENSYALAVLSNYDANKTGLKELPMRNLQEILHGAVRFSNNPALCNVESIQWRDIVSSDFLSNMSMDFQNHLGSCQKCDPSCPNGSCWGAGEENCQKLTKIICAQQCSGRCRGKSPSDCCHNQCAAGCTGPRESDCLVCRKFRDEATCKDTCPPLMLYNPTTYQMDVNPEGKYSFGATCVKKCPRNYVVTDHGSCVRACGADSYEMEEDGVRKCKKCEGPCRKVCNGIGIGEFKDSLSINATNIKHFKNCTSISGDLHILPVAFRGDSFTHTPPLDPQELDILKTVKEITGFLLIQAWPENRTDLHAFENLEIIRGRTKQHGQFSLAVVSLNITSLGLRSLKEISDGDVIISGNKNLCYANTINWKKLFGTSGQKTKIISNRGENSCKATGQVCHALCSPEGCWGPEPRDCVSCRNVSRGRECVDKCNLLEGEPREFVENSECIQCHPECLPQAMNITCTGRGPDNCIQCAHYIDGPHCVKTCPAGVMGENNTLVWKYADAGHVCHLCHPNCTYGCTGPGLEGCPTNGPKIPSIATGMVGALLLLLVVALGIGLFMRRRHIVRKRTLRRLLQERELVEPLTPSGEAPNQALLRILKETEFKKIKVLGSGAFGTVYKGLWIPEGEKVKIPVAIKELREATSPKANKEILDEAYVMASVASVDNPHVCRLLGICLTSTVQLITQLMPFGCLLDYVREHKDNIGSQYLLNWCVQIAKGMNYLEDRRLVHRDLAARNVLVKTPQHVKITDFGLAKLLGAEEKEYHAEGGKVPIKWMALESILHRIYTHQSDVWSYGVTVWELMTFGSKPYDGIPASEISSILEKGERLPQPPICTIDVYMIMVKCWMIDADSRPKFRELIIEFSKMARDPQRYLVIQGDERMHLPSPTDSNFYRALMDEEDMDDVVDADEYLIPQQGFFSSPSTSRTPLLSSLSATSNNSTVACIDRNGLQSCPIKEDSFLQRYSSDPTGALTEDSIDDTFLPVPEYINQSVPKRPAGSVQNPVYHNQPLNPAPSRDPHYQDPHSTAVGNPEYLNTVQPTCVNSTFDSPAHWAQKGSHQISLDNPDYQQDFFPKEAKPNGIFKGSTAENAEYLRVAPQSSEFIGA

Structure (SMILES) | IC50 [1] [nM] | IC50 [2] [nM] | IC50 [3] [nM] | IC50 [4] [nM] | IC50 [5] [nM] | IC50 [6] [nM] | IC50 [7] [nM] | IC50 [8] [nM] | IC50 [9] [nM] | IC50 [10] [nM]
COCC[C@@H]1CNC(=O)c2c1[nH]c(-c1ccncn1)c2Nc1cccc(F)c1OC [Compound 447a] | < 100 | < 100 | < 100 | < 100 | < 100 | < 100 | 100 to 1000 | < 100 | < 100 | < 100
COc1c(Cl)cccc1Nc1c(-c2ccncc2F)[nH]c2c1C(=O)NCC21CCOCC1 [Compound 778, 3′-[(3-chloro-2-methoxyphenyl)amino]-2′-(3-fluoropyridin-4-yl)-5′,6′-dihydro-1′H-spiro[oxane-4,7′-pyrrolo[3,2-c]pyridin]-4′-one] | < 100 | < 100 | < 100 | < 100 | < 100 | 100 to 1000 | > 1000 | 100 to 1000 | 100 to 1000 | 100 to 1000
COc1ncc2nccc(-c3[nH]c4c(c3Nc3cccc(F)c3C)C(=O)NCC4)c2n1 [Compound 794, 3-[(3-fluoro-2-methylphenyl)amino]-2-[2-methoxypyrido[3,2-d]pyrimidin-8-yl]-1H,5H,6H,7H-pyrrolo[3,2-c]pyridin-4-one] | < 100 | < 100 | < 100 | < 100 | < 100 | < 100 | 100 to 1000 | < 100 | < 100 | < 100
COc1c(F)cccc1Nc1c(-c2ccnc3ccc(C)nc23)[nH]c2c1C(=O)NCC2 [Compound 809, 3-[(3-fluoro-2-methoxyphenyl)amino]-2-(6-methyl-1,5-naphthyridin-4-yl)-1H,5H,6H,7H-pyrrolo[3,2-c]pyridin-4-one] | < 100 | < 100 | < 100 | < 100 | < 100 | < 100 | 100 to 1000 | < 100 | < 100 | < 100
COc1c(Cl)cccc1Nc1c(-c2ccncc2F)[nH]c2c1C(=O)NC[C@@H]2CC(F)F [Compound 819, (7S)-3-[(3-chloro-2-methoxyphenyl)amino]-7-(2,2-difluoroethyl)-2-(3-fluoropyridin-4-yl)-1H,5H,6H,7H-pyrrolo[3,2-c]pyridin-4-one] | < 100 | < 100 | < 100 | < 100 | < 100 | < 100 | > 1000 | 100 to 1000 | 100 to 1000 | 100 to 1000
COc1c(Cl)cccc1Nc1c(-c2ccncc2F)[nH]c2c1C(=O)NC[C@H]2CC(F)F [Compound 820, (7R)-3-[(3-chloro-2-methoxyphenyl)amino]-7-(2,2-difluoroethyl)-2-(3-fluoropyridin-4-yl)-1H,5H,6H,7H-pyrrolo[3,2-c]pyridin-4-one] | < 100 | < 100 | < 100 | < 100 | < 100 | < 100 | > 1000 | 100 to 1000 | 100 to 1000 | 100 to 1000
COc1ncc2nccc(-c3[nH]c4c(c3Nc3cccc(F)c3OC)C(=O)NCC4)c2n1 [compound 409] | < 100 | < 100 | < 100 | < 100 | < 100 | < 100 | 100 to 1000 | < 100 | < 100 | < 100
COc1c(Cl)cccc1Nc1c(-c2ccnc3ccc(OCC(F)F)nc23)[nH]c2c1C(=O)NCC2 [compound 733, 3-[(3-chloro-2-methoxyphenyl)amino]-2-[6-(2,2-difluoroethoxy)-1,5-naphthyridin-4-yl]-1H,5H,6H,7H-pyrrolo[3,2-c]pyridin-4-one] | < 100 | < 100 | < 100 | < 100 | < 100 | < 100 | 100 to 1000 | < 100 | < 100 | < 100
COc1c(Cl)cccc1Nc1c(-c2ccncc2F)[nH]c2c1C(=O)NC[C@@]21CCN(CC(F)F)C1 [compound 822] | < 100 | < 100 | < 100 | < 100 | < 100 | < 100 | > 1000 | 100 to 1000 | < 100 | 100 to 1000

Source: patent US20240101576A1, “HETEROCYCLIC INHIBITORS OF EGFR AND/OR HER2, FOR USE IN THE TREATMENT OF CANCER” (Scorpion Therapeutics, Inc., priority 2020, published 2024)
